Laboratory results as given in paper PMC5692573 (Proceedings of the National Academy of Sciences of the …, 2017).
Each block holds one molecule with its values, some of them ahead of it.

How the values were obtained:
Kif18A = Kif18A (Homo sapiens, UniProt Q8NI77); assay: cryo-EM reconstruction; format: binding
[1] = target: αβ-tubulin heterodimer (in paclitaxel-stabilized microtubules, or as curved tubulin in rings); assay: cryo-EM 2D class averages

Molecule: Nc1ncnc2c1ncn2[C@@H]1O[C@H](CO[P@](=O)(O)O[P@](=O)(O)NP(=O)(O)O)[C@@H](O)[C@H]1O [AMPPNP]
cryo-EM reconstruction (~6 Å) of MT-bound Kif18A_MDNL with AMPPNP (Kif18A): In the presence of AMPPNP, the nucleotide-binding site is clearly occupied by the bound nucleotide

stoichiometry N [1]: 1
B1: Kif18A_MDNL, monomeric human Kif18A motor-neck linker construct (domain or fragment)
chain: MSVTEEDLCHHMKVVVRVRPENTKEKAAGFHKVVHVVDKHILVFDPKQEEVSFFHGKKTTNQNVIKKQNKDLKFVFDAVFDETSTQSEVFEHTTKPILRSFLNGYNCTVLAYGATGAGKTHTMLGSADEPGVMYLTMLHLYKCMDEIKEEKICSTAVSYLEVYNEQIRDLLVNSGPLAVREDTQKGVVVHGLTLHQPKSSEEILHLLDNGNKNRTQHPTDMNATSSRSHAVFQIYLRQQDKTASINQNVRIAKMSLIDLAGSERASTSGAKGTRFVEGTNINRSLLALGNVINALADSKRKNQHIPYRNSKLTRLLKDSLGGNCQTIMIAAVSPSSVFYDDTYNTLKYANRAKDIKSSLKSNVLNVNNHITQYV
